This is an account of results in patent US9505750B2, “5-aminocyclylmethyl-oxazolidin-2-one derivatives” (priority 2007, dated 2016).

The test has as its system M. catarrhalis A894. Nature of the test: MIC determination by microdilution in cation-adjusted Mueller-Hinton Broth (NCCLS). The class given is cell-based. Conditions: Moraxella catarrhalis, pH 7.2-7.3. How it is done: These assays have been performed following the description given in “Methods for dilution Antimicrobial Susceptibility Tests for Bacteria that Grow Aerobically, 4th ed.; Approved standard: NCCLS Document M7-A4; National Committee for Clinical Laboratory Standards: Villanova, Pa., USA, 1997”. Minimal inhibitory concentrations (MICs; mg/l) were determined in cation-adjusted Mueller-Hinton Broth (BBL) by a microdilution method following NCCLS guidelines (National Committee for Clinical Laboratory Standards. Methods for Dilution Antimicrobial Susceptibility). The pH of the test medium was 7.2-7.3. All Example compounds were tested against several Gram-positive and Gram-negative bacteria.
A general note: Dilution methods test growth across graded concentrations, often in twofold steps.

≈ marks a conversion by molar mass, not a printed value.

Regarding `COc1ccc2nccc(NC3CN(C[C@@H]4CN(c5ccc6c(c5)NC(=O)CO6)C(=O)O4)C3)c2c1` [Example 25, 6-{(R)-5-[3-(6-methoxy-quinolin-4-ylamino)-azetidin-1-ylmethyl]-2-oxo-oxazolidin-3-yl}-4H-benzo[1,4]oxazin-3-one], the MIC – broadly, the lowest concentration found to suppress growth – is at most 0.031 µg/mL. In turn, `COc1ccc2ncnc(OC3CCN(C[C@@H]4CN(c5ccc6c(c5)OCCO6)C(=O)O4)C3)c2c1` (mixture of isomers) [Example 4, (R)-3-(2,3-dihydro-benzo[1,4]dioxin-6-yl)-5-[(RS)-3-(6-methoxy-quinazolin-4-yloxy)-pyrrolidin-1-ylmethyl]-oxazolidin-2-one] showed an MIC of at most 0.031 µg/mL. `COc1ccc2ncnc(O[C@H]3CCN(C[C@@H]4CN(c5ccc6c(c5)NC(=O)CS6)C(=O)O4)C3)c2c1` [Example 3, 6-{(R)-5-[(S)-3-(6-methoxy-quinazolin-4-yloxy)-pyrrolidin-1-ylmethyl]-2-oxo-oxazolidin-3-yl}-4H-benzo[1,4]thiazin-3-one] displayed an MIC of at most 0.031 µg/mL.

The compound `COc1ccc2nccc([C@@H](O)[C@H](O)C3CCN(C[C@@H]4CN(c5ccc6c(c5)NC(=O)CS6)C(=O)O4)C3)c2n1` (mixture of isomers) [Example 11, 6-((R)-5-{(RS)-3-[(1R,2R)-1,2-dihydroxy-2-(6-methoxy-[1,5]naphthyridin-4-yl)-ethyl]-pyrrolidin-1-ylmethyl}-2-oxo-oxazolidin-3-yl)-4H-benzo[1,4]thiazin-3-one] came in with a minimum inhibitory concentration (MIC) of 0.125 µg/mL. The figure for `COc1ccc2ncc(F)c(CNC3CN(C[C@@H]4CN(c5ccc6c(c5)NC(=O)CO6)C(=O)O4)C3)c2n1` [Example 26, 6-((R)-5-{3-[(3-fluoro-6-methoxy-[1,5]naphthyridin-4-ylmethyl)-amino]-azetidin-1-ylmethyl}-2-oxo-oxazolidin-3-yl)-4H-benzo[1,4]oxazin-3-one] is at most 0.031 µg/mL; for `COc1ccc2nccc(NC3CCN(C[C@@H]4CN(c5ccc6c(c5)NC(=O)CS6)C(=O)O4)CC3)c2c1` [Example 41, 6-{(R)-5-[4-(6-methoxy-quinolin-4-ylamino)-piperidin-1-ylmethyl]-2-oxo-oxazolidin-3-yl}-4H-benzo[1,4]thiazin-3-one] it is 0.5 µg/mL (≈ 0.962 µM); for `COc1ccc2ncnc(O[C@@H]3CN(C[C@@H]4CN(c5ccc6c(c5)NC(=O)CS6)C(=O)O4)C[C@H]3NC(C)=O)c2c1` (relative stereo) [Example 32, N-{(3R*,4R*)-4-(6-methoxy-quinazolin-4-yloxy)-1-[(R)-2-oxo-3-(3-oxo-3,4-dihydro-2H-benzo[1,4]thiazin-6-yl)-oxazolidin-5-ylmethyl]-pyrrolidin-3-yl}-acetamide] it is 0.25 µg/mL (≈ 0.443 µM). Then `COc1ccc2nccc(CNC3CN(C[C@@H]4CN(c5ccc6c(c5)NC(=O)CO6)C(=O)O4)C3)c2c1` [Example 29, 6-((R)-5-{3-[(6-methoxy-quinolin-4-ylmethyl)-amino]-azetidin-1-ylmethyl}-2-oxo-oxazolidin-3-yl)-4H-benzo[1,4]oxazin-3-one], with 0.063 µg/mL (≈ 0.129 µM).

For the compound `COc1ccc2nccc(NC3CN(C[C@@H]4CN(c5ccc6c(c5)NC(=O)CS6)C(=O)O4)C3)c2c1` [Example 37, 6-{(R)-5-[3-(6-methoxy-quinolin-4-ylamino)-azetidin-1-ylmethyl]-2-oxo-oxazolidin-3-yl}-4H-benzo[1,4]thiazin-3-one], the minimum inhibitory concentration (MIC) worked out at 0.125 µg/mL (≈ 0.254 µM). Then `N#Cc1ccc2nccc(NC3CN(C[C@@H]4CN(c5ccc6c(c5)NC(=O)CS6)C(=O)O4)C3)c2c1` [Example 38, 4-{1-[(R)-2-oxo-3-(3-oxo-3,4-dihydro-2H-benzo[1,4]thiazin-6-yl)-oxazolidin-5-ylmethyl]-azetidin-3-ylamino}-quinoline-6-carbonitrile], with 0.125 µg/mL (≈ 0.257 µM). The figure for `COc1ccc2nccc(NC(=O)C3CCN(C[C@@H]4CN(c5ccc6c(c5)NC(=O)CS6)C(=O)O4)C3)c2n1` (mixture of isomers) [Example 8, (RS)-1-[(R)-2-oxo-3-(3-oxo-3,4-dihydro-2H-benzo[1,4]thiazin-6-yl)-oxazolidin-5-ylmethyl]-pyrrolidine-3-carboxylic acid (6-methoxy-[1,5]naphthyridin-4-yl)-amide] is at most 0.031 µg/mL; for `COc1ccc2ncnc(O[C@@H]3CN(C[C@@H]4CN(c5ccc6c(c5)NC(=O)CS6)C(=O)O4)C[C@H]3n3ccnn3)c2c1` (relative stereo) [Example 16, 6-{(R)-5-[(3R*,4R*)-3-(6-methoxy-quinazolin-4-yloxy)-4-[1,2,3]triazol-1-yl-pyrrolidin-1-ylmethyl]-2-oxo-oxazolidin-3-yl}-4H-benzo[1,4]thiazin-3-one] it is at most 0.031 µg/mL.

On to `COc1ccc2nccc(NCC3CN(C[C@@H]4CN(c5ccc6c(c5)NC(=O)CS6)C(=O)O4)C3)c2n1` [Example 14, 6-((R)-5-{3-[(6-methoxy-[1,5]naphthyridin-4-ylamino)-methyl]-azetidin-1-ylmethyl}-2-oxo-oxazolidin-3-yl)-4H-benzo[1,4]thiazin-3-one], for which the MIC is at most 0.031 µg/mL.

`COc1ccc2ncnc(O[C@H]3C[C@@H](Cn4ccnn4)N(C[C@@H]4CN(c5ccc6c(c5)NC(=O)CS6)C(=O)O4)C3)c2c1` [Example 19, 6-{(R)-5-[(2S,4S)-4-(6-methoxy-quinazolin-4-yloxy)-2-[1,2,3]triazol-1-ylmethyl-pyrrolidin-1-ylmethyl]-2-oxo-oxazolidin-3-yl}-4H-benzo[1,4]thiazin-3-one] returned an MIC of 0.063 µg/mL (≈ 0.107 µM). The figure for `COc1ccc2nccc(NC3CN(C[C@@H]4CN(c5ccc6c(c5)NC(=O)CO6)C(=O)O4)C3)c2n1` [Example 24, 6-{(R)-5-[3-(6-methoxy-[1,5]naphthyridin-4-ylamino)-azetidin-1-ylmethyl]-2-oxo-oxazolidin-3-yl}-4H-benzo[1,4]oxazin-3-one] is at most 0.031 µg/mL; for `COc1ccc2nccc(OC3CN(C[C@@H]4CN(c5ccc6c(c5)OCCO6)C(=O)O4)C3)c2c1` [Example 44, (R)-3-(2,3-dihydro-benzo[1,4]dioxin-6-yl)-5-[3-(6-methoxy-quinolin-4-yloxy)-azetidin-1-ylmethyl]-oxazolidin-2-one] it is 8 µg/mL (≈ 17.3 µM); for `O=C1CSc2ccc(N3C[C@@H](CN4CC(Nc5ccnc6ccc(F)cc56)C4)OC3=O)cc2N1` [Example 39, 6-{(R)-5-[3-(6-fluoro-quinolin-4-ylamino)-azetidin-1-ylmethyl]-2-oxo-oxazolidin-3-yl}-4H-benzo[1,4]thiazin-3-one] it is 0.063 µg/mL (≈ 0.131 µM). Then `COc1ccc2ncnc(O[C@@H]3CCN(C[C@@H]4CN(c5ccc6c(c5)NC(=O)CS6)C(=O)O4)C3)c2c1` [Example 2, 6-{(R)-5-[(R)-3-(6-methoxy-quinazolin-4-yloxy)-pyrrolidin-1-ylmethyl]-2-oxo-oxazolidin-3-yl}-4H-benzo[1,4]thiazin-3-one], with at most 0.031 µg/mL; and `COc1ccc2ncnc(OCC3CN(C[C@@H]4CN(c5ccc6c(c5)OCCO6)C(=O)O4)C3)c2c1` [Example 30, (R)-3-(2,3-dihydro-benzo[1,4]dioxin-6-yl)-5-[3-(6-methoxy-quinazolin-4-yloxymethyl)-azetidin-1-ylmethyl]-oxazolidin-2-one], with 0.063 µg/mL (≈ 0.132 µM); and `COc1ccc2ncnc(O[C@@H]3CN(C[C@@H]4CN(c5ccc6c(c5)NC(=O)CS6)C(=O)O4)C[C@H]3O)c2c1` (relative stereo) [Example 22, 6-{(R)-5-[(3R*,4R*)-3-hydroxy-4-(6-methoxy-quinazolin-4-yloxy)-pyrrolidin-1-ylmethyl]-2-oxo-oxazolidin-3-yl}-4H-benzo[1,4]thiazin-3-one], with at most 0.031 µg/mL.
